From ChEMBL document CHEMBL4196009, “Novel vitexin-inspired scaffold against leukemia” (Eur J Med Chem, 2018)

System: SEM cells
Assay: Antiproliferative activity against human SEM cells after 72 hrs by CelTiter-Glo assay
Assay type: functional, cell-based
Conditions: not given

Row | SMILES | EC50 [µM]
1 | COc1ccc(-c2cc(=O)c3c(OC)cc(OC)cc3[nH]2)cc1 | > 31.2
2 | COC(=O)c1cc(=O)c2cc(NC(=O)NC34CC5CC(CC(C5)C3)C4)ccc2[nH]1 | > 16.2
3 | COC(=O)c1cc(=O)c2c(OC)cc(OC)cc2[nH]1 | > 34.5
4 | COc1cc(OC)c2c(=O)cc(C(=O)Nc3ccc(Oc4ccc([N+](=O)[O-])cc4)cc3)[nH]c2c1 | 0.48
5 | COC(=O)c1cc(=O)c2cc(NC(=O)Nc3ccc(C(F)(F)F)cc3[N+](=O)[O-])ccc2[nH]1 | 22.5

System: UoC-B1
Assay: Antiproliferative activity against human UOCB1 cells after 72 hrs by CelTiter-Glo assay
Assay type: functional, cell-based
Conditions: UoC-B1, 72 h

Row | SMILES | EC50 [µM]
6 | COc1ccc(-c2cc(=O)c3c(OC)cc(OC)cc3[nH]2)cc1 | > 31.2
7 | COC(=O)c1cc(=O)c2cc(NC(=O)NC34CC5CC(CC(C5)C3)C4)ccc2[nH]1 | > 16.2
8 | COC(=O)c1cc(=O)c2c(OC)cc(OC)cc2[nH]1 | > 34.5
9 | COC(=O)c1cc(=O)c2cc(NC(=O)Nc3ccc(C(F)(F)F)cc3[N+](=O)[O-])ccc2[nH]1 | > 26

System: THLE-2
Assay: Antiproliferative activity against human THLE2 cells after 72 hrs by CelTiter-Glo assay
Assay type: cell-based
Conditions: THLE-2, 72 h

Row | SMILES | EC50 [µM]
10 | COc1cc(OC)c2c(=O)cc(C(=O)Nc3ccc(Oc4ccc([N+](=O)[O-])cc4)cc3)[nH]c2c1 | 90

System: BJ
Assay: Antiproliferative activity against human BJ cells after 72 hrs by CelTiter-Glo assay
Assay type: cell-based
Conditions: not given

Row | SMILES | EC50 [µM]
11 | COc1ccc(-c2cc(=O)c3c(OC)cc(OC)cc3[nH]2)cc1 | > 62.1
12 | COC(=O)c1cc(=O)c2cc(NC(=O)NC34CC5CC(CC(C5)C3)C4)ccc2[nH]1 | > 32.2
13 | COC(=O)c1cc(=O)c2c(OC)cc(OC)cc2[nH]1 | > 34.5
14 | COc1cc(OC)c2c(=O)cc(C(=O)Nc3ccc(Oc4ccc([N+](=O)[O-])cc4)cc3)[nH]c2c1 | > 23
15 | COC(=O)c1cc(=O)c2cc(NC(=O)Nc3ccc(C(F)(F)F)cc3[N+](=O)[O-])ccc2[nH]1 | > 51.7

System: HepG2
Assay: Antiproliferative activity against human HepG2 cells after 72 hrs by CelTiter-Glo assay
Assay type: functional, cell-based
Conditions: HepG2, 72 h

Row | SMILES | EC50 [µM]
16 | COc1ccc(-c2cc(=O)c3c(OC)cc(OC)cc3[nH]2)cc1 | > 31.2
17 | COC(=O)c1cc(=O)c2cc(NC(=O)NC34CC5CC(CC(C5)C3)C4)ccc2[nH]1 | > 16.2
18 | COC(=O)c1cc(=O)c2c(OC)cc(OC)cc2[nH]1 | > 34.5
19 | COc1cc(OC)c2c(=O)cc(C(=O)Nc3ccc(Oc4ccc([N+](=O)[O-])cc4)cc3)[nH]c2c1 | > 23
20 | COC(=O)c1cc(=O)c2cc(NC(=O)Nc3ccc(C(F)(F)F)cc3[N+](=O)[O-])ccc2[nH]1 | > 26

System: SUP-B15
Assay: Antiproliferative activity against human SUP-B15 cells after 72 hrs by CelTiter-Glo assay
Assay type: functional, cell-based
Conditions: SUP-B15, 72 h

Row | SMILES | EC50 [µM]
21 | COc1ccc(-c2cc(=O)c3c(OC)cc(OC)cc3[nH]2)cc1 | > 62.1
22 | COC(=O)c1cc(=O)c2cc(NC(=O)NC34CC5CC(CC(C5)C3)C4)ccc2[nH]1 | 9.1
23 | COC(=O)c1cc(=O)c2c(OC)cc(OC)cc2[nH]1 | 16.1
24 | COc1cc(OC)c2c(=O)cc(C(=O)Nc3ccc(Oc4ccc([N+](=O)[O-])cc4)cc3)[nH]c2c1 | 4.3
25 | COC(=O)c1cc(=O)c2cc(NC(=O)Nc3ccc(C(F)(F)F)cc3[N+](=O)[O-])ccc2[nH]1 | > 51.7

System: KOPN-8
Assay: Antiproliferative activity against human KOPN8 cells after 72 hrs by CelTiter-Glo assay
Assay type: functional, cell-based
Conditions: KOPN-8, 72 h

Row | SMILES | EC50 [µM]
26 | COc1ccc(-c2cc(=O)c3c(OC)cc(OC)cc3[nH]2)cc1 | > 31.2
27 | COC(=O)c1cc(=O)c2cc(NC(=O)NC34CC5CC(CC(C5)C3)C4)ccc2[nH]1 | > 16.2
28 | COC(=O)c1cc(=O)c2c(OC)cc(OC)cc2[nH]1 | > 34.5
29 | COc1cc(OC)c2c(=O)cc(C(=O)Nc3ccc(Oc4ccc([N+](=O)[O-])cc4)cc3)[nH]c2c1 | 20.5
30 | COC(=O)c1cc(=O)c2cc(NC(=O)Nc3ccc(C(F)(F)F)cc3[N+](=O)[O-])ccc2[nH]1 | > 26
